Measured values taken from ChEMBL document CHEMBL1201862, “PubChem BioAssay data set” (2004).
The source made the active and inactive calls.

What was measured:
[1] = molecular target: T1, Heat shock factor protein 1 (Mus musculus, UniProt P38532); experiment: decrease of HSF1-responsive luciferase luminescence – cell-based, NIH3T3, dose retest, confirmation (AID 2382); format: functional;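 note: NIH3T3 fibroblasts with HSF1-driven luciferase reporter stressed by proteasome inhibitor MG132; luminescence from HSF1-driven luciferase expression after 8 hours of MG132 stress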
T1 sequence (P38532 whole entry): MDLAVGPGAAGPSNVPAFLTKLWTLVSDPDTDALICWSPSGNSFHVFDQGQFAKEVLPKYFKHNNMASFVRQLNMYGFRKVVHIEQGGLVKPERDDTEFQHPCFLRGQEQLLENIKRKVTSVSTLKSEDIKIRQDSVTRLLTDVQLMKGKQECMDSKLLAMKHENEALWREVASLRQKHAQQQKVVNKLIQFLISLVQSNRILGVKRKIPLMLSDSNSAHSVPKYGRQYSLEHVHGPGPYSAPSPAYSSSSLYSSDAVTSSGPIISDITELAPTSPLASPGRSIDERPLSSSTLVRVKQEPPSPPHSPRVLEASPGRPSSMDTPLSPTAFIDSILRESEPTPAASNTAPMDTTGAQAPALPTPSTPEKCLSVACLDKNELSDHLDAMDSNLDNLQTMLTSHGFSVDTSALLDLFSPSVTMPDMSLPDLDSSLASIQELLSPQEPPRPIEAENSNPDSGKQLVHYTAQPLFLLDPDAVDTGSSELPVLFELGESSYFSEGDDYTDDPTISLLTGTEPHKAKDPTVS

[2] = viability of uninfected HEp-2 cells – cell-based, HTS, cytotoxicity control for RSV inhibitor project, dose response (AID 2410); format: functional; conditions: human respiratory syncytial virus
[3] = molecular target: T2, Replicative DNA helicase DnaB (Mycobacterium tuberculosis, UniProt P9WMR3); experiment: DnaB intein splicing inhibitors, dose response, biochemical, cell-free fluorescence (AID 449749); format: functional
T2 sequence (P9WMR3 whole entry): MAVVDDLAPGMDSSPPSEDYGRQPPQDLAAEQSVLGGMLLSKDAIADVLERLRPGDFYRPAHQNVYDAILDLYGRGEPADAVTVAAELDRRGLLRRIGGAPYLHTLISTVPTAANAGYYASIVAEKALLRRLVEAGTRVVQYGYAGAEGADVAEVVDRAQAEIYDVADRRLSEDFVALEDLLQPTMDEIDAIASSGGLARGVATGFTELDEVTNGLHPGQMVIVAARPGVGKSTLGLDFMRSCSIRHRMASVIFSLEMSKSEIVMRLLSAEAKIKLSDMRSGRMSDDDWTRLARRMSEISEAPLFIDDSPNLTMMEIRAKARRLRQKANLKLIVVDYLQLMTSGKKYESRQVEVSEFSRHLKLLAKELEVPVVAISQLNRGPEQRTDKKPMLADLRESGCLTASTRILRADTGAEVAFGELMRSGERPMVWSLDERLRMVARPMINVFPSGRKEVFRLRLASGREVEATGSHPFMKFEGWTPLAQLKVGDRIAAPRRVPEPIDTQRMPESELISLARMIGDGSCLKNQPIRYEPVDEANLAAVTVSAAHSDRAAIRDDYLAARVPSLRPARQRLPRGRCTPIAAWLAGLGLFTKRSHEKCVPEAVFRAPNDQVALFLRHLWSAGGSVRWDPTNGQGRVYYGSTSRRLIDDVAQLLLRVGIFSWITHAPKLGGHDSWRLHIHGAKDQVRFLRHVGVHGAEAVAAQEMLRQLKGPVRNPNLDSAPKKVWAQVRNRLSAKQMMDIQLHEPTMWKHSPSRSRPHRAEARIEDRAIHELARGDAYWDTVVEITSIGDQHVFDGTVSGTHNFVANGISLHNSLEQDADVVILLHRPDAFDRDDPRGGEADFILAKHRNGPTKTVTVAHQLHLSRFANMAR

Protein RecA = molecular target: T3, Protein RecA (Mycobacterium tuberculosis, UniProt P9WHJ3); experiment: Fluorescence Cell-Free Homogeneous Dose Retest to Identify Inhibitors of RecA-Intein Splicing Activity. [Related pubchem assays (depositor defined):AID2097, AID2223, AID489010, AID492950]; format: functional
T3 sequence (P9WHJ3 whole entry): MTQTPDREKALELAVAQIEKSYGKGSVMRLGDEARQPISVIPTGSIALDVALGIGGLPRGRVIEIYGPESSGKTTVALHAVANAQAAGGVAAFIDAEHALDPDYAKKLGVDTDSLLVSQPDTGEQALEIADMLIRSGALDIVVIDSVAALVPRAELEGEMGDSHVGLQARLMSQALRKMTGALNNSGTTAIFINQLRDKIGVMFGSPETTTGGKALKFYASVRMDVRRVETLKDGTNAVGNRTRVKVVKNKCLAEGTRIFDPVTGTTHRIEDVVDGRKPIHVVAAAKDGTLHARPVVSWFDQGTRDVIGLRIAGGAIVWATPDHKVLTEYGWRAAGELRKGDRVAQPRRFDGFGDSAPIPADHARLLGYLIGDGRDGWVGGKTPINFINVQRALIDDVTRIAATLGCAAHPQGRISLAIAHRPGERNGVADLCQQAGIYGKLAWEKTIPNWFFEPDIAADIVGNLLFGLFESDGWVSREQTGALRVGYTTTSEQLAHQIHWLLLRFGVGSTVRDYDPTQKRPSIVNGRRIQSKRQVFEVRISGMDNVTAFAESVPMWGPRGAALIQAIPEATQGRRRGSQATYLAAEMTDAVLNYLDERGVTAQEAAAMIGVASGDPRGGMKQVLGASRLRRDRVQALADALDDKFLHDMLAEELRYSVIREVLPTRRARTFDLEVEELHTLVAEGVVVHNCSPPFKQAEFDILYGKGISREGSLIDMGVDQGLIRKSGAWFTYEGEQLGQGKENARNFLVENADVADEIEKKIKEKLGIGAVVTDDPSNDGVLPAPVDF

[4] = molecular target: T4, Rac GTPase-activating protein 1 (Homo sapiens, UniProt Q9H0H5); experiment: blockers of MgcRacGAP-driven Rac1 GTP hydrolysis – biochemical, ADP Hunter fluorescence, primary and confirmatory, confirmation (AID 624330); format: functional
T4 sequence (Q9H0H5 whole entry): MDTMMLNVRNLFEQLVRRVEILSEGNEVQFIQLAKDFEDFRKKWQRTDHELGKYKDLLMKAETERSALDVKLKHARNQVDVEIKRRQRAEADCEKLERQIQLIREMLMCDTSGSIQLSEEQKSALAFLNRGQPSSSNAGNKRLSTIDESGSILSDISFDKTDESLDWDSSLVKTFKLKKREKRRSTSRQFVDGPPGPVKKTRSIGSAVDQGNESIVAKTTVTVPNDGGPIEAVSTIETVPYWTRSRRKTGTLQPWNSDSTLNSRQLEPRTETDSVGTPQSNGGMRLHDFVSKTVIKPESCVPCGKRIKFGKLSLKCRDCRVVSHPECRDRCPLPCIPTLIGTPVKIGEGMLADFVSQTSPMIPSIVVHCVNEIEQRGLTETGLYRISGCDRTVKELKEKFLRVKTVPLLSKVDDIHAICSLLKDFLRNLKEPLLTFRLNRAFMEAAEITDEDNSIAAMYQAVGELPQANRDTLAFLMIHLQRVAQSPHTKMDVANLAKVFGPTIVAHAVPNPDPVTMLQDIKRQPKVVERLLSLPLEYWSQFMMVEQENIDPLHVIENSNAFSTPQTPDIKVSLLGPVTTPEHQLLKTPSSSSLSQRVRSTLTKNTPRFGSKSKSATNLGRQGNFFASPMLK

[5] = Luminescence Cell-Based Dose Response HTS to Identify Activators of Luciferase Translation or Activity in H4 […] Cells. [Related pubchem assays: 1829 (Project Summary), 1814 (Primary HTS)]; format: functional
H4 = experiment: Luminescence Cell-Based Dose Response HTS to Identify Activators of 5'UTR Stem-Loop Driven Prion Protein mRNA Translation in H4 Neuroglioblastoma Cells. [Related pubchem assays: 1829 (Project Summary), 1814 (Primary HTS)]; format: functional; conditions: Homo sapiens
Protein skinhead-1 = molecular target: T5, Protein skinhead-1 (Caenorhabditis elegans, UniProt P34707); format: functional
T5 sequence (P34707 whole entry): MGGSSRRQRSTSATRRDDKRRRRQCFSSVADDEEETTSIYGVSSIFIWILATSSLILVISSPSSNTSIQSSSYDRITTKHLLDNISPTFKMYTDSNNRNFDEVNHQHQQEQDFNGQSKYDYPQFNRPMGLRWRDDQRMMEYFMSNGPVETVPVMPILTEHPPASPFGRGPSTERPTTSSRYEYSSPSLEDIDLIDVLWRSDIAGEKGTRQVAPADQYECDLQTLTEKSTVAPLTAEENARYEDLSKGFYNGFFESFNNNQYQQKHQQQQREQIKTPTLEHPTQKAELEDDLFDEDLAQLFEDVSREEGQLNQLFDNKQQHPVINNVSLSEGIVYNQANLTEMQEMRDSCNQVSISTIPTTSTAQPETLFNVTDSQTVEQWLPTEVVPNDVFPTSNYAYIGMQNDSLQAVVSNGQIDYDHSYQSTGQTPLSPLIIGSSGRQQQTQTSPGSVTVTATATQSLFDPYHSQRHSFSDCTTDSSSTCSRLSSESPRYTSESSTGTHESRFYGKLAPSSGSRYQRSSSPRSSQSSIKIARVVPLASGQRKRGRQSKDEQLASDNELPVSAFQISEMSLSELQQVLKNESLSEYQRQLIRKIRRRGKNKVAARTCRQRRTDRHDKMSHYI

[6] = test system: Streptococcus sp. 'group A'; experiment: Streptococcus pyogenes SK(-)GAS viability under kanamycin – luminescence, BacTiterGlo, confirmation, counter-screen for streptokinase expression inhibitor project, dose response (AID 1900); format: functional, organism-based
Streptokinase A = molecular target: T6, Streptokinase A (Streptococcus pyogenes serotype M1, UniProt P10520); experiment: viability-normalized secreted streptokinase activity reduction – plasminogen activation absorbance, OD405, dose response (AID 1914); format: functional, Streptococcus pyogenes M1 GAS;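 note: secreted streptokinase activity via plasminogen activation per viability signal from cell pellet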
T6 sequence (P10520 whole entry): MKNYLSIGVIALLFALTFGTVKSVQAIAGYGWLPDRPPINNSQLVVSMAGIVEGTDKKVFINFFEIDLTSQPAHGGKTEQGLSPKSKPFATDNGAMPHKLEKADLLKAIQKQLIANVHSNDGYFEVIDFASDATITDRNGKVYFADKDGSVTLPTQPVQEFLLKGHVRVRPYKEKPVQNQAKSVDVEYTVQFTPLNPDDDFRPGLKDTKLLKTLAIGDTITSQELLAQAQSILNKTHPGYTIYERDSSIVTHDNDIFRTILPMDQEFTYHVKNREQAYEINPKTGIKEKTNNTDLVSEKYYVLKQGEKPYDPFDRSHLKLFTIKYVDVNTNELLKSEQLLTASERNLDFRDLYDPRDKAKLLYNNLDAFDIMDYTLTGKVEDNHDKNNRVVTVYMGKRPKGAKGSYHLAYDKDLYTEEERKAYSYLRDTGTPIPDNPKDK

Streptococcus = experiment: GAS UMAA2166 growth inhibition – luminescence, BacTiterGlo, counter-screen for streptokinase expression inhibitor project, dose response (AID 1915); format: functional, organism-based;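 note: potency for reduction of bacterial viability or growth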
Paired box protein Pax-8 = Paired box protein Pax-8 (Homo sapiens, UniProt Q06710); experiment: PAX8 transcriptional activity inhibition in RMG-I – RMG-I cells, luciferase, cherry-pick, dose response (AID 687027); format: functional, cell-based;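 note: luciferase reporter driven by Pax8 target thyroperoxidase promoter measured by SteadyGlo luminescence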
Chain of Paired box protein Pax-8 (Q06710 whole entry): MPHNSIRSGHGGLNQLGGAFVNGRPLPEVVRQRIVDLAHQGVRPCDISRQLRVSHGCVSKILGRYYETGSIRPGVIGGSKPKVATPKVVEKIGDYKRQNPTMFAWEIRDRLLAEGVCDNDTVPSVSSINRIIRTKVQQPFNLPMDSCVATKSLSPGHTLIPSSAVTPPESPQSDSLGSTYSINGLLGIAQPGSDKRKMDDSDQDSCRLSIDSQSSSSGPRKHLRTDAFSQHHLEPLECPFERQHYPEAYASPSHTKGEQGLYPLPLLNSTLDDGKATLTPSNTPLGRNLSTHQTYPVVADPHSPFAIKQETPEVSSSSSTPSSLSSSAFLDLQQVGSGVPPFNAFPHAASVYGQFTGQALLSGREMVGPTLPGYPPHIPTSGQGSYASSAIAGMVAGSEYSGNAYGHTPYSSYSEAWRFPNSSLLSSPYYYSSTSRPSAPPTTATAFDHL

Row | Structure (SMILES) | EC50 [1] | CC50 [2] | further results
1 | Oc1onc(-c2ccccc2)c1-c1ccccc1 | > 195 µM (not active) | – | –
2 | CC1Cc2ccccc2N1S(=O)(=O)c1cccc(C(=O)NC2CC2)c1 (stereo unspecified) | – | > 50 µM (active) | –
3 | Cc1cc(O)ccc1Nc1nc(-c2cccs2)cs1 | – | 21 µM (active) | AC50 [3]: 13.2 µM (active); EC50 (Protein RecA): 11.5 µM (active); IC50 [4]: 46.5 µM (active)
4 | Cc1ccc(S(=O)(=O)n2ccc(=O)[nH]2)cc1 | > 195 µM (not active) | – | –
5 | O=C(CSc1ncccn1)NCCc1ccccc1 | > 195 µM (not active) | – | –
6 | COc1ccc2nc(-c3ccc(Cl)cc3)cc(C(=O)O)c2c1 | – | 19.9 µM (active) | –
7 | Cc1cc(Nc2ccccc2C(=O)O)n(-c2cccc(Cl)c2)n1 | – | 30.9 µM (active) | –
8 | Oc1ccccc1N1CCN(c2ncnc3scc(-c4ccc(F)cc4)c23)CC1 | > 195 µM (not active) | – | –
9 | O=C(Nc1ccc2c(c1)CCC2)c1ccc(Cl)nc1 | – | 36.7 µM (active) | –
10 | CC(=O)c1ccc(NCC2COc3ccccc3O2)c([N+](=O)[O-])c1 (stereo unspecified) | – | > 50 µM (active) | –
11 | O=S(=O)(c1ccccc1C(F)(F)F)N1CCC(c2nc(O)c3nnn(Cc4cccc(F)c4)c3n2)CC1 | – | 32.2 µM (active) | –
12 | Cc1ccc2c(c1)CCCN2C(=O)CSc1ccccc1 | – | 47.2 µM (active) | –
13 | CCCNC(=O)NC1C(NC(=O)NCCC)N(C)C(=O)N1C (stereo unspecified) | > 195 µM (not active) | – | –
14 | Fc1ccc(N2CCN(c3cnc4ccccc4n3)CC2)cc1 | – | – | EC50 [5]: 0.244 µM (active); EC50 (H4): 12.8 µM (active); IC50 (Protein skinhead-1): 72.8 µM (inactive)
15 | O=C1C=C(c2ccc3ncccc3c2)C[C@@H](c2ccc(F)cc2)C1 | – | 30 µM (active) | –
16 | COc1cccc(-n2c(SCC(=O)NCC3CCCO3)nc3c(c2=O)SCC3)c1 (stereo unspecified) | > 195 µM (not active) | – | –
17 | C=CCn1c(C)cc(C(=O)COC(=O)CNC(=O)c2ccccc2)c1C | 2.44 µM (active) | – | –
18 | CN(C)c1ccc(/C=N/NC(=O)c2ccccc2Cl)cc1 | > 195 µM (not active) | – | –
19 | CC(=O)N1CCN(c2ccc(NCc3ccc(C(C)C)cc3)cc2)CC1 | – | – | IC50 (Protein skinhead-1): > 100 µM (inactive); IC50 [4]: 10.4 µM (active)
20 | COc1ccc(C2CC(c3ccccc3)=NN2C(=O)c2cccs2)cc1 (stereo unspecified) | – | – | EC50 [6]: 4.88 µM (active); EC50 (Streptokinase A): > 150 µM (not active); EC50 (Streptococcus): 12.4 µM (active); IC50 (Protein skinhead-1): > 100 µM (inactive)
21 | COc1ccc(C(c2nnnn2Cc2ccccc2)N2CCC(n3c(O)nc4ccccc43)CC2)cc1 (stereo unspecified) | – | – | AC50 (Paired box protein Pax-8): 6.91 µM (active)
22 | C/C(=N\NC(=O)C1CC1)c1ccc(Cl)c(Cl)c1 | – | > 50 µM (active) | –
